Paper PMC5218480 (PLoS ONE, 2017)

Tested on: MV-4-11 cells
Assay: Gene expression microarray analysis (Affymetrix PrimeView) and GSEA
Format: cell-based, human
Parameters: RFU PODN (11730768_x_at) / Fold change /veh PODN (11730768_x_at) / RFU LINC00158 (11744669_a_at) / Fold change /veh LINC00158 (11744669_a_at) / RFU DUSP10 (11751237_a_at) / Fold change /veh DUSP10 (11751237_a_at) / RFU ID3 (11757404_x_at) / Fold change /veh ID3 (11757404_x_at) / RFU PLEKHG5 (11737974_s_at) / Fold change /veh PLEKHG5 (11737974_s_at) / RFU LRRC4B (11730491_at) / Fold change /veh LRRC4B (11730491_at) / RFU GIMAP4 (11747438_a_at) / Fold change /veh GIMAP4 (11747438_a_at) / RFU KRT8 (11758183_x_at) / Fold change /veh KRT8 (11758183_x_at) / RFU CNN1 (11734310_a_at) / Fold change /veh CNN1 (11734310_a_at) / RFU VPS37D (11726825_at) / Fold change /veh VPS37D (11726825_at) / RFU C10orf10 (11716522_x_at) / Fold change /veh C10orf10 (11716522_x_at) / RFU KIR2DL2 /// KIR2DL4 /// KIR2DL5A /// KIR2DL5B /// KIR2DS1 /// KIR2DS2 /// KIR2DS3 /// KIR2DS4 /// KIR3DL3 /// KIR3DL3 /// KIR3DS1 (11738374_at) / Fold change /veh KIR2DL2 /// KIR2DL4 /// KIR2DL5A /// KIR2DL5B /// KIR2DS1 /// KIR2DS2 /// KIR2DS3 /// KIR2DS4 /// KIR3DL3 /// KIR3DL3 /// KIR3DS1 (11738374_at) / RFU C1QL1 (11718748_at) / Fold change /veh C1QL1 (11718748_at) / RFU TMPRSS4 (11747572_a_at) / Fold change /veh TMPRSS4 (11747572_a_at) / RFU HAMP (11756126_x_at) / Fold change /veh HAMP (11756126_x_at) / RFU RNFT2 (11725882_a_at) / Fold change /veh RNFT2 (11725882_a_at) / RFU NR4A2 (11747474_a_at) / Fold change /veh NR4A2 (11747474_a_at) / RFU ABCC12 (11746883_a_at) / Fold change /veh ABCC12 (11746883_a_at) / RFU TMEM136 (11760407_x_at) / Fold change /veh TMEM136 (11760407_x_at) / RFU CLDN22 /// WWC2 (11732394_at) / Fold change /veh CLDN22 /// WWC2 (11732394_at) / RFU HLA-DPB1 (11760878_x_at) / Fold change /veh HLA-DPB1 (11760878_x_at) / RFU SPINT1 (11716480_a_at) / Fold change /veh SPINT1 (11716480_a_at) / RFU GAP43 (11754022_s_at) / Fold change /veh GAP43 (11754022_s_at) / RFU A4GNT (11735810_at) / Fold change /veh A4GNT (11735810_at) / RFU PRB3 (11715151_x_at) / Fold change /veh PRB3 (11715151_x_at) / RFU TUBB4B (11761932_at) / Fold change /veh TUBB4B (11761932_at) / RFU CAPN14 (11732068_a_at) / Fold change /veh CAPN14 (11732068_a_at) / RFU TMCC2 (11721928_a_at) / Fold change /veh TMCC2 (11721928_a_at) / RFU IRGQ (11745062_a_at) / Fold change /veh IRGQ (11745062_a_at) / RFU FAM174B (11720279_a_at) / Fold change /veh FAM174B (11720279_a_at) / RFU TMPRSS4 (11748680_a_at) / Fold change /veh TMPRSS4 (11748680_a_at) / RFU FAM212B (11763350_a_at) / Fold change /veh FAM212B (11763350_a_at) / RFU PLEKHG5 (11743358_a_at) / Fold change /veh PLEKHG5 (11743358_a_at) / RFU ZSCAN30 (11745921_a_at) / Fold change /veh ZSCAN30 (11745921_a_at) / RFU CMKLR1 (11741424_a_at) / Fold change /veh CMKLR1 (11741424_a_at) / RFU LOC101060620 /// MAPK8IP1 (11723275_at) / Fold change /veh LOC101060620 /// MAPK8IP1 (11723275_at) / RFU SPTSSB (11747773_x_at) / Fold change /veh SPTSSB (11747773_x_at) / RFU PRSS12 (11739890_at) / Fold change /veh PRSS12 (11739890_at) / RFU BIN1 (11741810_x_at) / Fold change /veh BIN1 (11741810_x_at) / RFU WNT11 (11732464_a_at) / Fold change /veh WNT11 (11732464_a_at) / RFU C10orf10 (11716521_a_at) / Fold change /veh C10orf10 (11716521_a_at) / RFU C5orf56 (11738089_at) / Fold change /veh C5orf56 (11738089_at) / RFU CYB561 (11721691_x_at) / Fold change /veh CYB561 (11721691_x_at) / RFU ANKRD19P (11752326_a_at) / Fold change /veh ANKRD19P (11752326_a_at) / RFU OR2T12 /// OR2T33 /// OR2T8 (11738714_s_at) / Fold change /veh OR2T12 /// OR2T33 /// OR2T8 (11738714_s_at) / RFU VCAN (11748164_a_at) / Fold change /veh VCAN (11748164_a_at) / RFU JSRP1 (11732532_at) / Fold change /veh JSRP1 (11732532_at) / RFU KRTAP10-11 (11738290_x_at) / Fold change /veh KRTAP10-11 (11738290_x_at) / RFU MYO3A (11730013_a_at) / Fold change /veh MYO3A (11730013_a_at) / RFU EBF3 (11725865_a_at) / Fold change /veh EBF3 (11725865_a_at) / RFU CAMK2N1 (11719241_x_at) / Fold change /veh CAMK2N1 (11719241_x_at) / RFU C5orf56 (11738088_a_at) / Fold change /veh C5orf56 (11738088_a_at) / RFU OLFML3 (11715873_a_at) / Fold change /veh OLFML3 (11715873_a_at) / RFU LOC100653217 /// NTM (11731650_a_at) / Fold change /veh LOC100653217 /// NTM (11731650_a_at) / RFU MAPK11 (11762145_a_at) / Fold change /veh MAPK11 (11762145_a_at) / RFU FIZ1 (11724087_x_at) / Fold change /veh FIZ1 (11724087_x_at) / RFU OASL (11726364_x_at) / Fold change /veh OASL (11726364_x_at) / RFU SOX15 (11748057_x_at) / Fold change /veh SOX15 (11748057_x_at) / RFU CD79A (11719716_a_at) / Fold change /veh CD79A (11719716_a_at) / RFU HIST1H1D (11736915_at) / Fold change /veh HIST1H1D (11736915_at) / RFU CASKIN2 (11723855_a_at) / Fold change /veh CASKIN2 (11723855_a_at) / RFU LOC730098 (11760151_x_at) / Fold change /veh LOC730098 (11760151_x_at) / RFU OR4N2 (11742367_at) / Fold change /veh OR4N2 (11742367_at) / RFU PRRT2 (11749266_a_at) / Fold change /veh PRRT2 (11749266_a_at) / RFU SNX32 (11753110_a_at) / Fold change /veh SNX32 (11753110_a_at) / RFU CDHR5 (11726645_a_at) / Fold change /veh CDHR5 (11726645_a_at) / RFU RCAN1 (11760418_a_at) / Fold change /veh RCAN1 (11760418_a_at) / RFU FAM167A (11723789_a_at) / Fold change /veh FAM167A (11723789_a_at) / RFU FAM26E (11764081_at) / Fold change /veh FAM26E (11764081_at) / RFU ISYNA1 (11749810_s_at) / Fold change /veh ISYNA1 (11749810_s_at) / RFU ACY1 (11761880_at) / Fold change /veh ACY1 (11761880_at) / RFU 11764098_at / Fold change /veh 11764098_at / RFU SAMD14 (11745864_x_at) / Fold change /veh SAMD14 (11745864_x_at) / RFU NPB (11741838_a_at) / Fold change /veh NPB (11741838_a_at) / RFU TMPRSS6 (11731388_a_at) / Fold change /veh TMPRSS6 (11731388_a_at) / RFU KRTAP10-2 (11738614_at) / Fold change /veh KRTAP10-2 (11738614_at) / RFU ARHGAP8 /// PRR5-ARHGAP8 (11727945_x_at) / Fold change /veh ARHGAP8 /// PRR5-ARHGAP8 (11727945_x_at) / RFU KRTAP5-7 /// NADSYN1 (11734609_at) / Fold change /veh KRTAP5-7 /// NADSYN1 (11734609_at) / RFU RASL12 (11751679_a_at) / Fold change /veh RASL12 (11751679_a_at) / RFU CDKN2B (11736163_a_at) / Fold change /veh CDKN2B (11736163_a_at) / RFU PRF1 (11729649_at) / Fold change /veh PRF1 (11729649_at) / RFU, ZNF638 /// ZNF638-IT1 / Fold change vs veh, ZNF638 /// ZNF638-IT1 / RFU, PANK3 / Fold change vs veh, PANK3 / RFU, SH3YL1 / Fold change vs veh, SH3YL1 / RFU, ZEB2 / Fold change vs veh, ZEB2 / RFU, NRIP1 / Fold change vs veh, NRIP1 / RFU, PTTG1IP / Fold change vs veh, PTTG1IP / RFU, CAPN2 / Fold change vs veh, CAPN2 / RFU, MED14 / Fold change vs veh, MED14 / RFU, SNORA58 / Fold change vs veh, SNORA58 / RFU, C1orf63 / Fold change vs veh, C1orf63 / RFU, LRRFIP1 / Fold change vs veh, LRRFIP1 / RFU, NDUFAF7 / Fold change vs veh, NDUFAF7 / RFU, SLC12A2 / Fold change vs veh, SLC12A2 / RFU, IBTK / Fold change vs veh, IBTK / RFU, ESF1 / Fold change vs veh, ESF1 / Fold change vs veh, TMEM50B / RFU, TAOK1 / Fold change vs veh, TAOK1 / RFU, ACBD3 / Fold change vs veh, ACBD3 / RFU, TMA16 / Fold change vs veh, TMA16 / RFU, RWDD3 / Fold change vs veh, RWDD3 / RFU, BCAT1 / Fold change vs veh, BCAT1 / RFU, EDEM3 / Fold change vs veh, EDEM3 / RFU, TMEM33 / Fold change vs veh, TMEM33 / RFU, WDR75 / Fold change vs veh, WDR75 / RFU, AHCTF1 / Fold change vs veh, AHCTF1 / RFU, TFRC / Fold change vs veh, TFRC / RFU, ZDHHC17 / Fold change vs veh, ZDHHC17 / RFU, NOM1 / Fold change vs veh, NOM1 / RFU, ARL8B / Fold change vs veh, ARL8B / RFU, ZBTB11 / Fold change vs veh, ZBTB11 / RFU, TAMM41 / Fold change vs veh, TAMM41 / RFU, KIAA1704 /// LOC100996395 / Fold change vs veh, KIAA1704 /// LOC100996395 / RFU, ING1 / Fold change vs veh, ING1 / RFU, TRMT61B / Fold change vs veh, TRMT61B / RFU, FUBP3 / Fold change vs veh, FUBP3 / RFU, TP53 / Fold change vs veh, TP53 / RFU, TNKS2 / Fold change vs veh, TNKS2 / RFU, ZFP14 / Fold change vs veh, ZFP14 / RFU, ACTR2 / Fold change vs veh, ACTR2 / RFU, PPP3R1 / Fold change vs veh, PPP3R1 / RFU, PIK3R1 / Fold change vs veh, PIK3R1 / RFU, HNRNPA1 / Fold change vs veh, HNRNPA1 / RFU, RNF170 / Fold change vs veh, RNF170 / RFU, ZNF28 / Fold change vs veh, ZNF28 / RFU, RNGTT / Fold change vs veh, RNGTT / RFU, OGT / Fold change vs veh, OGT / RFU, BRD1 / Fold change vs veh, BRD1 / RFU, MARS / Fold change vs veh, MARS / RFU, ZNF655 / Fold change vs veh, ZNF655 / RFU, FAHD1 / Fold change vs veh, FAHD1 / RFU, BDP1 / Fold change vs veh, BDP1 / RFU, LRRCC1 / Fold change vs veh, LRRCC1 / RFU, ARID1A / Fold change vs veh, ARID1A / RFU, ZNF146 / Fold change vs veh, ZNF146 / RFU, ZNF330 / Fold change vs veh, ZNF330 / RFU, GPN3 / Fold change vs veh, GPN3 / RFU, C9orf123 / Fold change vs veh, C9orf123 / RFU, N4BP2L2 / Fold change vs veh, N4BP2L2 / RFU, ARFIP1 / Fold change vs veh, ARFIP1 / RFU, FAM179B / Fold change vs veh, FAM179B / RFU, BCL10 / Fold change vs veh, BCL10 / RFU, UHRF1BP1L / Fold change vs veh, UHRF1BP1L / RFU, BET1 / Fold change vs veh, BET1 / RFU, CNOT2 / Fold change vs veh, CNOT2 / RFU, ZNF268 / Fold change vs veh, ZNF268 / Fold change vs veh, ZNF507 / RFU, DGCR2 / Fold change vs veh, DGCR2 / RFU, WDSUB1 / Fold change vs veh, WDSUB1 / Fold change vs veh, HSP90B1 /// MIR3652 / RFU, ADSS / Fold change vs veh, ADSS / RFU, GK / Fold change vs veh, GK / RFU, ZNF148 / Fold change vs veh, ZNF148 / RFU, TAF9 / Fold change vs veh, TAF9 / RFU, SLC1A5 / Fold change vs veh, SLC1A5 / RFU, SLMO2 / Fold change vs veh, SLMO2 / RFU, ABCC4 / Fold change vs veh, ABCC4 / RFU, LOC101060439 /// RAP1B / Fold change vs veh, LOC101060439 /// RAP1B / RFU, RFX7 / Fold change vs veh, RFX7 / RFU, GTPBP10 / Fold change vs veh, GTPBP10 / RFU, CNEP1R1 / Fold change vs veh, CNEP1R1 / RFU, BIVM-ERCC5 /// ERCC5 / Fold change vs veh, BIVM-ERCC5 /// ERCC5 / RFU, ILF3 / Fold change vs veh, ILF3 / RFU 11762660_at / Fold change /veh 11762660_at / RFU VCAN (11757783_s_at) / Fold change /veh VCAN (11757783_s_at) / RFU DDX43 (11728927_at) / Fold change /veh DDX43 (11728927_at) / RFU KRT8 (11758188_x_at) / Fold change /veh KRT8 (11758188_x_at) / RFU NKD1 (11759106_at) / Fold change /veh NKD1 (11759106_at) / RFU SRD5A1 (11742802_a_at) / Fold change /veh SRD5A1 (11742802_a_at) / RFU TPSAB1 /// TPSB2 (11721975_s_at) / Fold change /veh TPSAB1 /// TPSB2 (11721975_s_at) / RFU GSTM3 (11746129_a_at) / Fold change /veh GSTM3 (11746129_a_at) / RFU IL23R (11737362_x_at) / Fold change /veh IL23R (11737362_x_at) / RFU TMEM51 (11727254_a_at) / Fold change /veh TMEM51 (11727254_a_at) / RFU PIWIL2 (11732686_x_at) / Fold change /veh PIWIL2 (11732686_x_at) / RFU ORM1 (11744905_x_at) / Fold change /veh ORM1 (11744905_x_at) / RFU CCDC152 (11743942_at) / Fold change /veh CCDC152 (11743942_at) / RFU ECM1 (11717891_a_at) / Fold change /veh ECM1 (11717891_a_at) / RFU IL23R (11748794_a_at) / Fold change /veh IL23R (11748794_a_at) / RFU TNFAIP8L3 (11732012_x_at) / Fold change /veh TNFAIP8L3 (11732012_x_at) / RFU MBOAT4 (11741988_at) / Fold change /veh MBOAT4 (11741988_at) / RFU 11764193_at / Fold change /veh 11764193_at / RFU TMEM53 (11763286_at) / Fold change /veh TMEM53 (11763286_at) / RFU MAGEB2 (11727129_at) / Fold change /veh MAGEB2 (11727129_at) / RFU TMEM200A (11744735_a_at) / Fold change /veh TMEM200A (11744735_a_at) / RFU CCDC152 (11751479_a_at) / Fold change /veh CCDC152 (11751479_a_at) / RFU FAM211A (11726209_a_at) / Fold change /veh FAM211A (11726209_a_at) / RFU RGS16 (11746705_a_at) / Fold change /veh RGS16 (11746705_a_at) / RFU VCAN (11755009_s_at) / Fold change /veh VCAN (11755009_s_at) / RFU RHOB (11743442_s_at) / Fold change /veh RHOB (11743442_s_at) / RFU RGS16 (11720943_a_at) / Fold change /veh RGS16 (11720943_a_at) / RFU RGS16 (11720944_at) / Fold change /veh RGS16 (11720944_at) / RFU, VPS4B / Fold change vs veh, VPS4B / RFU, CREB1 / Fold change vs veh, CREB1 / RFU, DNAJC13 / Fold change vs veh, DNAJC13 / RFU, GNAQ / Fold change vs veh, GNAQ / RFU, CDK5R1 / Fold change vs veh, CDK5R1 / RFU, ZRANB3 / Fold change vs veh, ZRANB3 / RFU, CUL4A / Fold change vs veh, CUL4A / RFU, CCNY / Fold change vs veh, CCNY / RFU, UFL1 / Fold change vs veh, UFL1 / RFU, COG3 / Fold change vs veh, COG3 / RFU, DIAPH2 / Fold change vs veh, DIAPH2 / RFU, SKA2 / Fold change vs veh, SKA2 / RFU, AFF3 / Fold change vs veh, AFF3 / RFU, LMF1 / Fold change vs veh, LMF1 / RFU, IPO11 / Fold change vs veh, IPO11 / RFU, DFFB / Fold change vs veh, DFFB / RFU, FOXP1 / Fold change vs veh, FOXP1 / RFU, CARD8 / Fold change vs veh, CARD8 / RFU, STRN3 / Fold change vs veh, STRN3 / RFU, ADK / Fold change vs veh, ADK / RFU, RASSF2 / Fold change vs veh, RASSF2 / RFU, WIPF1 / Fold change vs veh, WIPF1 / RFU, LARP1B / Fold change vs veh, LARP1B / RFU, RASA1 / Fold change vs veh, RASA1 / RFU, RB1 / Fold change vs veh, RB1 / RFU, PPFIA1 / Fold change vs veh, PPFIA1 / RFU, MAT2A / Fold change vs veh, MAT2A / RFU, CCT5 / Fold change vs veh, CCT5 / RFU, WDR92 / Fold change vs veh, WDR92 / RFU, CUX1 / Fold change vs veh, CUX1 / RFU, TTC7A / Fold change vs veh, TTC7A / RFU, TMEM135 / Fold change vs veh, TMEM135 / RFU, DEPTOR / Fold change vs veh, DEPTOR / RFU, CPM / Fold change vs veh, CPM / RFU, DNAJB6 / Fold change vs veh, DNAJB6 / RFU, CACNA2D3 / Fold change vs veh, CACNA2D3 / RFU, DTX4 / Fold change vs veh, DTX4 / RFU, TFCP2 / Fold change vs veh, TFCP2 / RFU, GMCL1 /// GMCL1P1 / Fold change vs veh, GMCL1 /// GMCL1P1 / RFU, AEBP2 / Fold change vs veh, AEBP2 / RFU, SNHG1 /// SNORD22 /// SNORD25 /// SNORD26 /// SNORD27 /// SNORD28 /// SNORD29 /// SNORD31 / Fold change vs veh, SNHG1 /// SNORD22 /// SNORD25 /// SNORD26 /// SNORD27 /// SNORD28 /// SNORD29 /// SNORD31 / Fold change (Aza/veh), C12orf56 (ProbeSet 11735607_a_at) / Fold change (ACY-1035/veh), C12orf56 (ProbeSet 11735607_a_at) / Fold change (Aza/veh), FGFR1OP (ProbeSet 11751329_s_at) / Fold change (ACY-1035/veh), FGFR1OP (ProbeSet 11751329_s_at) / Fold change (Aza/veh), VPS36 (ProbeSet 11739960_a_at) / Fold change (ACY-1035/veh), VPS36 (ProbeSet 11739960_a_at) / RFU SYPL1 (11715823_x_at) / Fold change /veh SYPL1 (11715823_x_at) / RFU IGFBP7 (11715501_s_at) / Fold change /veh IGFBP7 (11715501_s_at) / RFU REEP3 (11722064_at) / Fold change /veh REEP3 (11722064_at) / RFU IGLL1 (11728026_x_at) / Fold change /veh IGLL1 (11728026_x_at): dose or concentration left out as unconfirmed
Settings: MV-4-11 cells, 48 hours

Nc1ccc(-c2cccs2)cc1NC(=O)c1ccc2c(c1)cc(C1CC1)n2CCN1CCOCC1 [ACY-1035]
Fold change /veh SAMD14 (11745864_x_at): 1.01
